# Test results from patent US20260216343A1, “CONJUGATE, MICELLE AND ANTICANCER AGENT” (TOHOKU UNIVERSITY, priority 2023, published 2026).
# Counter-ions that a name gives are not always drawn.
# Key:
# [1] = Dose-dependent in vivo toxicity / maximum tolerated dose of HF; design: species or system WT C57BL/6 mice
# Source text: (§1) Keap1^FB/FB:Kras^G12D mice were produced in the same manner as in Cancer Res, 15 Aug. 2020, 80(16):3331-3344, Genes & Dev., 2001, 15:3243-3248, and Am J Respir Cell Mol Biol., 2010 May, 42(5):524-36. All the mice used in this test had the C57BL/6J background. Saline, HF, and HFm were intravenously injected to the mice. All the in vivo experiments were approved by the animal welfare committee of Tohoku University.
# Monocytes were isolated from the bone marrow, the spleen, and the thymus using Ficoll-Paque PREMIUM 1.084 (Cytiva 17-5446-02). The monocytes were stained with allophycocyanin-eFluor 780 conjugate anti-c-Kit (Invitrogen; Clone 2B8), Brilliant Violet 421 conjugate anti-B220 (Biolegend; Clone RA2-6B2), phycoerythrin conjugate anti-F4/80 (Biolegend; Clone BM8), fluorescein isothiocyanate conjugate anti-Ly6G (Biolegend; Clone 1A8), Brilliant Violet 421 conjugate anti-CD11b (Biolegend; Clone M1/70), fluorescein isothiocyanate conjugate anti-CD71 (eBiosciences; CloneR17217), phycoerythrin conjugate anti-Ter119 (eBiosciences; Clone TER-119), PE-Cyanine7 conjugate anti-CD4 (Invitrogen; CloneGK1.5), and allophycocyanin conjugate anti-CD8 (Biolegend; Clone S3-6.7). The dead cells were removed using propidium iodide staining. The analysis was made using FACSVerse (BD Biosciences). The data were analyzed using FlowJo software (BD Biosciences).
# Preclinical animal testing was conducted to determine the maximum tolerated dose (hereinafter also referred to as MTD) of HF. […] Thus, in this test, HF was administered to WT C57BL/6 mice (eight to 12 weeks old, both females and males) incrementally in the range of 0.25 mg/kg to 1 mg/kg (FIG. 2A). HF was administered to the tail veins every two days four times in total.
# [2] = test system: Nrf2-activated lung adenocarcinoma; experiment: Tumor suppression in Kras-driven Nrf2-activated lung adenocarcinoma mouse model; type: in vivo, Keap1^FB/FB:Kras^G12D mice
# Source text: as §1
# Adeno-Cre was purchased from VectorBioLabs (Ad-Cre-GFP, catalog no. 1700). Adeno-Cre was administered in the same manner as in Nat Protoc 4, 2009, 1064-1072. Briefly, 1×10^7 plaque-forming units of Adeno-Cre were mixed with Eagle's minimum essential medium (MEM) and calcium chloride. The mixture was incubated on ice for 20 minutes and used for intranasal dropping within one hour of the preparation. Droplets containing the Adeno-Cre mixture were administered to the nostrils of anesthetized mice (eight to 12 weeks old) using a pipette. The mice were allowed to inhale the droplets gradually.
# The lung tissues were fixed in 10% formalin (Mildform 10N; FUJIFILM Wako Pure Chemical Corporation, Osaka) and embedded in paraffin. The slices were stained with hematoxylin-eosin (HE) or elastica-Masson (EM). To measure the tumor areas, five slices were cut out with a certain distance and stained with HE. The tumor areas were measured using ImageJ software (NIH).
# To examine whether administration of HF or HFm could suppress the progress of Nrf2-activated non-small-cell lung cancer (NSCLC), a Kras-driven lung adenocarcinoma mouse model was used (Genes&Dev., 2001, 15:3243-3248). A mouse having a loxP-Stop-loxP Kras^G12D-knocked-in allele (hereinafter also referred to as “Kras mouse”) was mated with a mouse having a Keap1-flox allele in the loxP site including the third and fourth exons (hereinafter also referred to as “Keap1^FB”) (Am J Respir Cell Mol Biol., 2010 May, 42(5):524-36), and thus a Keap1^FB/FB:Kras^G12D complex mouse was obtained (Cancer Res, 15 Aug. 2020, 80(16):3331-3344). Through Cre recombination by intranasal infection with Adeno-Cre, activation of Kras cancer gene and deletion of Keap1 exons were achieved simultaneously. By this operation, Nrf2-activated lung adenocarcinoma was successfully imitated in mice.
# Then, after the tumor was grown for 17 weeks, administration of HF or HFm was started. HF or HFm was intravenously administered every two days, and injection was conducted four times in total. Because the MTD of HF was determined to be 0.75 mg/kg bw (FIG. 2), it was decided to use 0.75 mg/kg bw of HF or HFm in this cancer-bearing mouse experiment. The mice were sacrificed on the eighth day. Various characteristics of the lung tumors were analyzed, and the effectiveness of HF and HFm changing the tumor burden was evaluated (FIG. 4A).
# Next, by EM staining of the lung slices, the influence of HF and HFm on the malignancy of tumors was examined (FIG. 4C, bottom). Using images of the slices, the lung lesions were evaluated according to the guidelines of the system of the 2015 World Health Organization Classification of Lung Tumors (Front Oncol., 2017 Aug 28, 7: 193). Briefly, lung tumors include two types, namely a lepidic lesion and a papillary lesion. A lepidic lesion indicates in situ proliferation of cells along the alveolar walls (arrows with “x”), while a papillary lesion indicates proliferation away from the alveolar walls (arrows with “y”). A tumor with many papillary lesions is called Grade II, and it is known that the prognoses of a patient having many papillary tumors is poor compared to that of a patient having many lepidic tumors (Grade I). When the main component of the tumor is composed of a solid sheet and when no recognizable lepidic or papillary pattern is found, the tumor is classified as a solid tumor (Grade III).
# After KRAS-driven lung adenocarcinoma was grown for 17 weeks, the mice were treated with saline, HF (0.25 mg/kg), or HFm (0.25 mg/kg) every two days four times in total (FIG. 7A).
# [3] = 0.25 to 0.75 mg/kg iv four times
# [4] = 0.75 mg/kg bw iv four times, vs. saline
structure (smiles),measurement,setting,value
"O=C(CC1NCCCC1O)Cn1cnc2cc(Br)c(Cl)cc2c1=O (stereo not shown) [HF, Halofuginone hydrobromide]",bone marrow B cell count (B220+),[1]; 0.75 mg/kg iv four times,decreased
same,erythroblasts (Ter119+CD71+) of the spleen,[1]; 0.75 mg/kg iv four times,most of the erythroblasts disappeared
same,acute condition of mice,[1]; 1 mg/kg iv every two days,showed a sign of acute disorder after two injections and were moribund
same,body weight change,"[1]; 1 mg/kg iv, day 1 vs. day 4",−13.4%
same,mortality,"[1]; 1 mg/kg iv, eight mice, after second administration",one mouse in the administration group died
same,bone marrow precursor cell count (c-Kit+),[1]; [3],did not change largely
same,bone marrow total cell count,[1]; [3],did not change largely
same,erythroblasts (Ter119+CD71+) of the spleen,[1]; [3],decreased largely in a dose-dependent manner
same,erythrocyte counts in peripheral blood,[1]; [3],equivalent in all the groups
same,leukocyte count in peripheral blood,[1]; [3],decreased in a dose-dependent manner
same,platelet counts in peripheral blood,[1]; [3],equivalent in all the groups
same,thymus weight,[1]; [3],decreased with significance in a dose-dependent manner
same,whole cells of the spleen,[1]; [3],decreased largely in a dose-dependent manner
same,thymus CD4 single-positive (CD4+CD8-) cells,[1]; HF iv four times,decreased
same,thymus CD8 single-positive (CD4-CD8+) cells,[1]; HF iv four times,tendency towards a decrease
same,total cells of the thymus,[1]; HF iv four times,decreased
same,spleen weight,"[1]; increasing HF dose, iv four times",decreased stepwisely
same,maximum tolerated dose (MTD),[1]; iv every two days four times,0.75 mg/kg bw
same,number of papillary lesions vs. saline,[2]; 0.25 mg/kg bw iv four times,far smaller
same,number of solid tumors vs. saline,[2]; 0.25 mg/kg bw iv four times,smaller with significance
same,lung weight vs. saline-treated mice,"[2]; 0.75 mg/kg bw iv every two days four times, day 8",lower with significance
same,solid adenocarcinomas of Grade III,[2]; 0.75 mg/kg bw iv four times,disappeared completely
same,number of lepidic (Grade I) tumors,[2]; [4],equivalent numbers
same,number of papillary (Grade II) tumors,[2]; [4],equivalent numbers
same,frequency of the papillary tumors,"[2]; 0.75 mg/kg bw iv four times, vs. saline control",lower
same,tumor area (HE-stained lung sections),"[2]; 0.75 mg/kg bw iv four times, saline-treated group 21%",10%
same,lung weight decrease (saline vs. treatment),[2]; high dose (0.75 mg/kg),37.6%
same,tumor area decrease (saline vs. treatment),[2]; high dose (0.75 mg/kg),9.95%
same,lung weight decrease (saline vs. treatment),[2]; low dose (0.25 mg/kg),25.7%
same,tumor area decrease (saline vs. treatment),[2]; low dose (0.25 mg/kg),7.42%
same,disappearance of solid tumors,[2]; low-dose therapy (0.25 mg/kg bw),did not disappear completely
